Test results taken from US10188733B2 (priority 2010, dated 2019).

System: VSV-specific neutralizing antibodies
Format: in vivo, mice
Details: for antigen-specific antibody titers / increase in adaptive immune responses following immunization: mouse, in vivo; for VSV antigen-specific neutralizing antibody titers: free bisphosphonate 2 mg footpad days -3 and -1, live VSV Indiana 10^4 pfu, serum day 8, vs control mice (FIG. 6)

Molecule	antigen-specific antibody titers	increase in adaptive immune responses following immunization	VSV antigen-specific neutralizing antibody titers
carrageenan	did not increase	failed to induce an increase	–
NCCC(O)(P(=O)(O)O)P(=O)(O)O [pamidronate]	–	–	increased
dextran sulfate	did not increase	failed to induce an increase	–
CC(O)(P(=O)(O)O)P(=O)(O)O [etidronate]	–	–	increased
NCCCC(O)(P(=O)(O)O)P(=O)(O)O [alendronate]	–	–	increased
